Test results: ChEMBL document CHEMBL1287799, “Design, synthesis, and structure-activity relationship study of bicyclic piperazine analogs of indole-3-carboxamides as novel cannabinoid CB1 receptor agonists” (Bioorg Med Chem Lett, 2010)
The source made the active and inactive calls. The rule behind the calls is not given here.

Experiments:
[1] = Half life in mouse liver microsomes; format: ADME, Microsome
Cannabinoid receptor 1 [2] = molecular target: T1, Cannabinoid receptor 1 (Homo sapiens, UniProt P21554)
Description: Agonist activity at human CB1 receptor transfected in CHO cells after 5 hrs by luciferase reporter gene assay

[3] = Half life in human liver microsomes; format: ADME, Microsome
[4] = Genotoxicity in Salmonella Typhimurium up to 100 uM by Ames test; format: toxicity; conditions: salmonella enterica subsp. enterica serovar typhimurium
Cytochrome P450 2C9 = Cytochrome P450 2C9 (Homo sapiens, UniProt P11712); assay: Inhibition of human CYP2C9; format: ADME
Cytochrome P450 2D6 = Cytochrome P450 2D6 (Homo sapiens, UniProt P10635); assay: Inhibition of human CYP2D6; format: ADME
Mus musculus [5] = assay: Antinociceptive effect in iv dosed mouse assessed as increase in tail-flick latency period by tail flick test; format: functional
Cytochrome P450 3A4 = Cytochrome P450 3A4 (Homo sapiens, UniProt P08684); assay: Inhibition of human CYP3A4; format: ADME
Cannabinoid receptor 2 = Cannabinoid receptor 2 (Homo sapiens, UniProt P34972); assay: Displacement of [3H]-CP55940 from human CB2 expressed in insect Sf9 membranes; format: cell membranes
Cannabinoid receptor 1 [6] = molecular target: T1, Cannabinoid receptor 1; assay: biochemical
Mus musculus [7] = assay: Antinociceptive activity against formalin-induced inflammatory pain in iv dosed mouse assessed inhibition of paw flinching behavior in both phases of formalin response; format: functional, organism-based
Mus musculus [8] = assay: Antinociceptive activity against formalin-induced inflammatory pain in iv dosed mouse assessed inhibition of paw biting behavior in both phases of formalin response; format: functional, organism-based
Mus musculus [9] = assay: Antinociceptive activity against formalin-induced inflammatory pain in mouse assessed inhibition of paw flinching behavior in both phases of formalin response at => 0.3 umol/kg, iv; format: functional, organism-based
Mus musculus [10] = assay: Antinociceptive activity against formalin-induced inflammatory pain in iv dosed mouse assessed inhibition of paw licking behavior in both phases of formalin response; format: functional, organism-based
Mus musculus [11] = assay: Antinociceptive activity against formalin-induced inflammatory pain in mouse assessed inhibition of paw lifting behavior in both phases of formalin response at => 0.3 umol/kg, iv; format: functional, organism-based
Mus musculus [12] = assay: Antinociceptive activity against formalin-induced inflammatory pain in iv dosed mouse assessed inhibition of paw biting behavior in both phases of formalin response in presence of CB1 antagonist SR-141716A pretreated before compound challenge; format: functional, organism-based
Mus musculus [13] = assay: Antinociceptive activity against formalin-induced inflammatory pain in mouse assessed inhibition of paw biting behavior in both phases of formalin response => 0.3 umol/kg, iv; format: functional, organism-based
Mus musculus [14] = assay: Antinociceptive activity against formalin-induced inflammatory pain in mouse assessed inhibition of paw licking behavior in both phases of formalin response at => 0.3 umol/kg, iv; format: functional, organism-based
Mus musculus [15] = assay: Antinociceptive activity against formalin-induced inflammatory pain in iv dosed mouse assessed inhibition of paw lifting behavior in both phases of formalin response in presence of CB1 antagonist SR-141716A pretreated before compound challenge; format: functional, organism-based
Mus musculus [16] = assay: Antinociceptive activity against formalin-induced inflammatory pain in iv dosed mouse assessed inhibition of paw lifting behavior in both phases of formalin response; format: functional, organism-based
Mus musculus [17] = assay: Antinociceptive activity against formalin-induced inflammatory pain in iv dosed mouse assessed inhibition of paw flinching behavior in both phases of formalin response in presence of CB1 antagonist SR-141716A pretreated before compound challenge; format: functional, organism-based
Mus musculus [18] = assay: Antinociceptive activity against formalin-induced inflammatory pain in iv dosed mouse assessed inhibition of paw licking behavior in both phases of formalin response in presence of CB1 antagonist SR-141716A pretreated before compound challenge; format: functional, organism-based

T1 sequence (P21554 whole entry): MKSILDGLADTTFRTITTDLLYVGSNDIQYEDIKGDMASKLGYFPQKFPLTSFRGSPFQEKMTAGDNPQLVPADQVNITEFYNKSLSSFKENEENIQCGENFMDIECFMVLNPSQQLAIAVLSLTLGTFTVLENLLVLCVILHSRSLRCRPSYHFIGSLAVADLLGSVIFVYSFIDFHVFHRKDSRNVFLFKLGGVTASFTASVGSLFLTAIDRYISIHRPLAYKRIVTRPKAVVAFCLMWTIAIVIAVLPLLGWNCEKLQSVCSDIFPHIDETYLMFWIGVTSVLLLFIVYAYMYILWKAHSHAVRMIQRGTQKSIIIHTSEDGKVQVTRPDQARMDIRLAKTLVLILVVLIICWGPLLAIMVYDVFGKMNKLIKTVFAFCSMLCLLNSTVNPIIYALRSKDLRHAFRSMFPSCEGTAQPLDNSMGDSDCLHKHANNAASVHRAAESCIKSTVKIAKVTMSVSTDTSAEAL
Sequence of Cannabinoid receptor 2 (P34972 whole entry): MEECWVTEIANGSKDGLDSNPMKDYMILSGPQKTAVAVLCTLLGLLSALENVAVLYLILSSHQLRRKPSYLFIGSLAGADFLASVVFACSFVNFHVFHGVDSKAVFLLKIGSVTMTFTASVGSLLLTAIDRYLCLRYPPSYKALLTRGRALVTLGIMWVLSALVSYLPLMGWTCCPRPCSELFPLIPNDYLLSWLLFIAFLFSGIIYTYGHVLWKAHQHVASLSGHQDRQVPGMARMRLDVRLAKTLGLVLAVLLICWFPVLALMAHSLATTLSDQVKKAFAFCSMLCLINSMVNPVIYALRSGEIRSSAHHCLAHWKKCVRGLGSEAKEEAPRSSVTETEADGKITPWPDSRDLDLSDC
Sequence of Cytochrome P450 2C9 (P11712 whole entry): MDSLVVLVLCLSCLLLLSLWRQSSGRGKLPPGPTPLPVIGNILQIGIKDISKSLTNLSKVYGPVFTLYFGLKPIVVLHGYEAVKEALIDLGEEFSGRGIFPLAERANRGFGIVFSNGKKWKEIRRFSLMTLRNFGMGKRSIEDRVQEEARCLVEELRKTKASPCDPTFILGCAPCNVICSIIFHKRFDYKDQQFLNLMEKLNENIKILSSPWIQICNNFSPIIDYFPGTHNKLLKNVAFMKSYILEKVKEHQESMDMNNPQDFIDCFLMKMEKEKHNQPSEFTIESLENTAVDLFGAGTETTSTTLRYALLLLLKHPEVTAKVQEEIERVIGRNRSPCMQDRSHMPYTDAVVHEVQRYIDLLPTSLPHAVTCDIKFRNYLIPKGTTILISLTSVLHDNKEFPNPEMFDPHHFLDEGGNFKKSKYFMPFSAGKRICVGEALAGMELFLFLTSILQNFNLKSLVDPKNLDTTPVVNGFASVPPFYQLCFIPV
Sequence of Cytochrome P450 3A4 (P08684 whole entry): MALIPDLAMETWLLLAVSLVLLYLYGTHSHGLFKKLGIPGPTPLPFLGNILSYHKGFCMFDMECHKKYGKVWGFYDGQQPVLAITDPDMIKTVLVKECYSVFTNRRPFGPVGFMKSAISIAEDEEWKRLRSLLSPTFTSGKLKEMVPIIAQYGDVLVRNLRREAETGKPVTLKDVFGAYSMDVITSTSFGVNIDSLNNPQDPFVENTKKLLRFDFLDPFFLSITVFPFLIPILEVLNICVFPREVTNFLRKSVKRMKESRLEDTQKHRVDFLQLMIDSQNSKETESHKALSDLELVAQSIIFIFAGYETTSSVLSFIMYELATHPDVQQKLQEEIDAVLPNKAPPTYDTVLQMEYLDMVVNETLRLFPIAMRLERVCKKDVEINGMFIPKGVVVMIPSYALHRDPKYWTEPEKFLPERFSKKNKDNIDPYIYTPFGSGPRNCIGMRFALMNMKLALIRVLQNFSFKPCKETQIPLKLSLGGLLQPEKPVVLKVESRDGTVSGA
Sequence of Cytochrome P450 2D6 (P10635 whole entry): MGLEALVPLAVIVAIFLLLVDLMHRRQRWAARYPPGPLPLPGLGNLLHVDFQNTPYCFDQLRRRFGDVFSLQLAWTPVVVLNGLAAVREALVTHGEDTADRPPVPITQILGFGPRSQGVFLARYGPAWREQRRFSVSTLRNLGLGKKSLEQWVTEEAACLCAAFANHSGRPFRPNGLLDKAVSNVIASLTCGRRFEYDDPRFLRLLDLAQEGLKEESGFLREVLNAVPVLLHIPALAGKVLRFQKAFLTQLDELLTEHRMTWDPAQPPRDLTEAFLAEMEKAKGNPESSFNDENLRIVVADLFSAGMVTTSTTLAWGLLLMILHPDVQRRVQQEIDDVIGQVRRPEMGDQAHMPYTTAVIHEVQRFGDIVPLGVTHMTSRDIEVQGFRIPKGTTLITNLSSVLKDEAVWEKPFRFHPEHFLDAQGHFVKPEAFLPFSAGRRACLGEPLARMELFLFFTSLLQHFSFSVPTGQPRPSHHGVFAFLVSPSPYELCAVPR

Row | SMILES | half-life [1] [min] | EC50 (Cannabinoid receptor 1 [2]) [µM] | half-life [3] [min] | also measured
1 | COc1cccc2c(C(=O)N3C[C@H]4CCCN4C[C@H]3C)cn(CC3CCCCC3)c12.Cl | < 5 | 0.0631 | < 5 | 
2 | COc1cccc2c(C(=O)N3C[C@]4(C)CSCN4C[C@@H]3C)cn(CC3CCCCC3)c12.Cl | < 5 | 0.0316 | < 5 | 
3 | COc1cccc2c(C(=O)N3CCN4CCCC[C@@H]4C3)cn(CC3CCCCC3)c12 | < 5 | 0.1 | < 5 | 
4 | COc1cccc2c(C(=O)N3C[C@@H]4CCCN4C[C@@H]3CC(C)C)cn(CC3CCCCC3)c12 | < 5 | > 10 | < 5 | 
5 | COc1cccc2c(C(=O)N3CCN4CCCC[C@H]4C3)cn(CC3CCCCC3)c12 [listing 1 of 2 here] |  |  |  | Activity [4]: Non-toxic; IC50 (Cytochrome P450 2C9): 12 µM; IC50 (Cytochrome P450 2D6): 13 µM; ED50 (Mus musculus [5]): 0.00058 µmol/kg; IC50 (Cytochrome P450 3A4): 6 µM; Ki (Cannabinoid receptor 2): 0.00398 µM; Ki (Cannabinoid receptor 1 [6]): 0.00251 µM
6 | COc1cccc2c(C(=O)N3C[C@@H]4CCCN4CC3(C)C)cn(CC3CCCCC3)c12 | < 5 | 0.1 | < 5 | 
7 | COc1cccc2c(C(=O)N3C[C@H]4CCCN4CC3(C)C)cn(CC3CCCCC3)c12 | < 5 | 0.631 | < 5 | 
8 | O=C(c1cn2c3c(cccc13)OC[C@H]2C1CCCCC1)N1CCN2CCCC[C@H]2C1 |  |  |  | ED50 (Mus musculus [5]): 0.00042 µmol/kg; Ki (Cannabinoid receptor 2): 0.000398 µM; Ki (Cannabinoid receptor 1 [6]): 0.00158 µM
9 | COc1cccc2c(C(=O)N3C[C@@H]4CCCN4C[C@@H]3C)cn(CC3CCCCC3)c12 | < 5 | 0.1 | < 5 | 
10 | COc1cccc2c(C(=O)N3CCN4CCC[C@@H]4C3)cn(CC3CCCCC3)c12 | < 5 | 0.0631 | < 5 | 
11 | Cc1c(C(=O)c2cccc3ccccc23)c2cccc3c2n1[C@H](CN1CCOCC1)CO3 [WIN-552122] |  |  |  | ED50 (Mus musculus [5]): 0.0017 µmol/kg
12 | COc1cccc2c(C(=O)N3CCN4CCC[C@H]4C3)cn(CC3CCCCC3)c12.Cl | < 5 | 0.02 | < 5 | 
13 | COc1cccc2c(C(=O)N3C[C@H]4CCCN4C[C@@H]3C)cn(CC3CCCCC3)c12.Cl | < 5 | 0.501 | < 5 | 
14 | O=C(c1cn2c3c(cccc13)OC[C@@H]2C1CCCCC1)N1CCN2CCCC[C@H]2C1 |  | 2 |  | 
15 | CCCCCCC(C)(C)c1ccc([C@@H]2C[C@H](O)CC[C@H]2CCCO)c(O)c1 [CP-55940] |  |  |  | ED50 (Mus musculus [5]): 0.00011 µmol/kg
16 | COc1cccc2c(C(=O)N3C[C@@H]4CCCN4C[C@H]3C)cn(CC3CCCCC3)c12.Cl | < 5 | 1 | < 5 | 
17 | COc1cccc2c(C(=O)N3CCN4CCC[C@@]4(C)C3)cn(CC3CCCCC3)c12.Cl | < 5 | 1.26 | < 5 | 
18 | COc1cccc2c(C(=O)N3CCN4CCCC[C@H]4C3)cn(CC3CCCCC3)c12 [listing 2 of 2 here] |  |  |  | Activity (Mus musculus [7]): Dose-dependent effect; Activity (Mus musculus [8]): Dose-dependent effect; Activity (Mus musculus [9]): Active; Activity (Mus musculus [10]): Dose-dependent effect; Activity (Mus musculus [11]): Active; Activity (Mus musculus [12]): inactive; Activity (Mus musculus [13]): Active; Activity (Mus musculus [14]): Active; Activity (Mus musculus [15]): inactive; Activity (Mus musculus [16]): Dose-dependent effect; Activity (Mus musculus [17]): inactive; Activity (Mus musculus [18]): inactive
19 | COc1cccc2c(C(=O)N3CCN4CCCC[C@H]4C3)cn(CC3CCCCC3)c12.Cl | < 5 |  | < 5 | 
20 | COc1cccc2c(C(=O)N3C[C@H]4CCCN4C[C@H]3CC(C)C)cn(CC3CCCCC3)c12 | < 5 | 0.316 | < 5 | 
